Like-named read-outs stand apart in the source and are kept apart here.
Columns and labels:
[1] = Stability test in liver microsomes (mouse); assay type: in vitro ADME; details: 1 μM compound
How it was run: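 Compound (1 μM final) incubated 30 min at 37 °C with male CD-1 mouse or male SD rat pooled liver microsomes (0.5 mg/mL) in 50 mM phosphate buffer with 3 mM MgCl2, 1 mM EDTA and NADPH-regenerating system. Quenched with acetonitrile containing internal standard; LC-MS/MS gives percent remaining relative to 0-min sample.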

[2] = Study on in vivo pharmacokinetics in mice; parameters: species or system mouse; details: for concentration at 8 h / concentration at 24 h: male, ICR, mouse
Excerpt: Example 6 Study on In Vivo Pharmacokinetics in Mice
Solutol HS15 was purchased from BASF, Germany, ethanol (anhydrous) was purchased from Nanjing Chemical Reagent Co., Ltd., physiological saline was purchased from Huayu (Wuxi) Pharmaceutical Co., Ltd., dimethyl sulfoxide (DMSO) and sodium carboxymethyl cellulose 800-1200 (CMC-Na) were purchased from Sinopharm Chemical Reagent Co., Ltd.
Preparation of ethanol/Solutol mixed solution (1:1, v/v): taking an appropriate amount of Solutol HS15 in a centrifuge tube and placing in a 37° C. water bath until dissolved, placing on the bench top to room temperature, taking 1 mL of Solutol in a centrifuge tube containing 1 mL of ethanol and mixing well to obtain the mixed solution.
Taking an appropriate amount of stock solution and placing in a blank centrifuge tube, adding an appropriate amount of ethanol/Solutol mixed solution prepared in advance, vortexing, then adding an appropriate amount of physiological saline, and mixing well until a transparent liquid.
3. Administration to Animals and Sample Collection:
Male ICR mice were purchased from Shanghai Lingchang Biotechnology Co., Ltd. 18 mice were randomly divided into intravenous administration group and intragastric administration group. The mice were fasted overnight before administration. The mice were withheld food but allowed to access water freely within 4 hours after administration, and allowed to freely access food and water after 4 hours. After anesthesia with isoflurane, blood was collected from the retroorbital venous plexus and placing in an centrifuge tube containing anticoagulant, and the centrifuge tube was stored in an box containing wet ice until the plasma was centrifuged.
The plasma samples were pre-treated and then analyzed by liquid chromatography-tandem mass spectrometry (LC-MS/MS), the instrument model was API5500. The analytical chromatographic column was Waters XSELECT HSS T3 C18 column (50×2.1 mm, 2.5 μm). In the mobile phases, deionized water containing 0.1% formic acid and 0.1% acetonitrile was used as the aqueous phase and acetonitrile containing 0.1% formic acid was used as the organic phase. The concentrations of the compound in the samples were determined as follows. Firstly, a standard curve was established, and the peak area ratios of the compound 19 to the internal standard in the standard curve were used as indexes. The theoretical concentrations of compound 19 and the peak area ratios of compound 19 to the internal standard were fitted with a quadratic regression equation to obtain the regression equation. The sample concentrations were calculated by measuring the peak area ratio of the compound of the test sample to the internal standard according to the standard curve.

MLM, percentage of remaining compound after 30 minutes of incubation ([1]; mouse liver microsomes, 30 min): 91.8%
concentration at 8 h ([2]; oral, mice, intragastric, 10 mg/kg, plasma at 8 h, read-out: C8 h): 0.555 µg/mL
concentration at 24 h ([2]; oral, mice, intragastric, 10 mg/kg, plasma at 24 h, read-out: C24 h): 0.0085 µg/mL
concentration at 8 h ([2]; plasma, 10 mg/kg, oral administration in mice, 8 h, read-out: plasma concentration at 8 h): 0.555 µg/mL
concentration at 24 h ([2]; plasma, 10 mg/kg, oral administration in mice, 24 h, lower limit of quantification 2.4 ng/mL, read-out: plasma concentration at 24 h): 0.0085 µg/mL
T1/2 ([2]; mice, intragastric, 10 mg/kg): 2.7 h
plasma exposure (AUC0-∞) relative to reference GDC-0853 ([2]; oral administration in mice): about 1.7 times
plasma concentration at 8 h relative to GDC-0853 ([2]; oral administration in mice, 8 h): about 3.9 folds
Compound: C[C@H]1CN(C2COC2)CCN1c1ccc(Nc2cc(-c3ccnc(-n4ccn5c6c(cc5c4=O)CC(C)(C)C6)c3CO)cn(C)c2=O)nc1 [Compound 19]
stability in mouse liver microsomes compared with reference GDC-0853 ([1]; 0.5 mg/mL liver microsomes, 30 minutes incubation): better than that of the reference GDC-0853
